# PMC7217877, “N-AS-triggered SPMs are direct regulators of microglia in a model of Alzheimer’s disease” (Nature Communications, 2020)
# “And” between values parts separate entries of the source, which are not always exact repeats. Identical values can stand only once. Like-named read-outs stand apart in the source and are kept apart here.
# How the values were obtained:
# [1] = biological target: T1, SphK1 WT (Homo sapiens, UniProt Q9NYA1); assay: filter binding assay of [3H] acetyl-CoA to SphK1 (Supplementary Fig 1f,g); settings: for Km: read-out: KM of acetyl-CoA binding to SphK1
# T1 construct: His (N); made in house
# T1 sequence (Q9NYA1 whole entry): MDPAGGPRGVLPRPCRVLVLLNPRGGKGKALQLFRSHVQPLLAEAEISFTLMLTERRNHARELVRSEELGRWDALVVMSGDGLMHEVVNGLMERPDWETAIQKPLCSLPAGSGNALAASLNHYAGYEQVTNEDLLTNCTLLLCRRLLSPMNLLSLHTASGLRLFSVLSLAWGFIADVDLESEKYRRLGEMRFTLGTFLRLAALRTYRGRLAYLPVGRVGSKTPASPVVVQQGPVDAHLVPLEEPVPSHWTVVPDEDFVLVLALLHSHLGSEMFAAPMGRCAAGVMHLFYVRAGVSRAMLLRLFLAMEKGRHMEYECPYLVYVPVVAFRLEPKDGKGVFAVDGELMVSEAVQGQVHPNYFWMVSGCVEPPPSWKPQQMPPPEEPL
# Source text: Single point mutations in SphK1 (R56A, R57A, R24A, R185A, D178A, and F192A) and COX2 (S565A, N181A, T564A, and S567A) were generated using the In-Fusion Cloning Kits (Clontech) and ORF cDNA expression plasmids of human SphK1 and COX2 gene (Sino Biological Inc, HG15679-NH and HG12036-NH), according to the manufacturer’s instructions. The forward and reverse primers described in Supplementary Table 4. The SphK1 WT, SphK1 mutants, COX2 WT, and COX2 mutant plasmids were transformed in the One shot TOP 10 competent cell (Invitrogen). The bacteria were grown in Luria-Bertani (LB, Invitrogen) plates supplemented with 50 μg ml^−1 kanamycin (Sigma-Aldrich) at 37 °C. The bacterial cell pellets were resuspended in lysis buffer containing 20 mM sodium phosphate (GE Healthcare), 500 mM NaCl (GE Healthcare), 20 mM imidazole (pH 7.4) (GE Healthcare), 0.2 mg ml^−1 lysozyme (Sigma-Aldrich), 20 μg ml^−1 DNase I (Roche), 1 mM MgCl2 (Sigma-Aldrich), and 1 mM PMSF (Sigma-Aldrich) before being lysed by sonication and clarified by centrifugation at 15,493×g for 10 min. Proteins were purified from the soluble fraction using His-Spin Trap columns (GE Healthcare) and the binding and acetylation assays were performed.
# Briefly, SphK1 WT and mutant enzymes (1 mU) were resuspended in 100 μl reaction buffer (20 mM HEPES; pH 7.4, 50 mM NaCl, 10 mM MgCl2, 1 mM EGTA, 0.02% Triton-X100, and 100 μM sphingosine, all from Sigma-Aldrich). […] Briefly, COX2 WT and mutant enzymes (1 mU) were resuspended in 100 μl reaction buffer (20 mM HEPES; pH 7.4, 50 mM NaCl, 10 mM MgCl2, 1 mM EGTA, and 0.02% Triton-X100, all from Sigma-Aldrich). Reactions were initiated by adding [^14C] N-AS (1–200 μM (0.1–20 μCi), ARC UK Ltd, ARC-1024) and incubated at 37 °C for 1 h. The reactions were terminated by adding 100 μl of ice-cold reaction buffer containing 5 mM cold N-AS and immediately filtered through P30 filtermat (Perkin-Elmer), followed by five washes.
# The binding velocity was plotted and the Kcat and KM values were calculated from the Michaelis-Menten analysis using the Sigma-plot program (ver 10.0, Systat software Inc.).
# [2] = test system: APP/PS1 mice; assay: mRNA levels of inflammatory markers in cortex (real-time PCR, Fig 6j); assay type: in vivo, mouse; set-up: iNOS mRNA level (Figure 6j) / IL1b mRNA level (Figure 6j) / Arg1 mRNA level (Figure 6j) / IL4 mRNA level (Figure 6j) / TGFb mRNA level (Figure 6j) / TNF-a mRNA level (Figure 6j) / IL6 mRNA level (Figure 6j): scale not given here
# Experimental: Transgenic mouse lines over-expressing the hAPP695swe (APP) and presenilin-1M146V (PS1) mutations were originated from GlaxoSmithKline (Harlow, UK)[32] and maintained as described previously. We purchased 5×FAD mice from Jackson Labs (Stock number. 34840-JAX). Because APP/PS1 and 5xFAD mice show sex differences in disease progression, we used only male mice. To examine possible therapeutic effect of N-AS and aspirin in APP/PS1 mice, the N-AS (30 mg kg^−1, Sigma-Aldrich, 01912) was injected daily s.c. for 8 weeks to 7-months-old APP/PS1 mice until the age of 9 months, and aspirin (2 mg kg^−1, Sigma-Aldrich, A5376)[33] was administrated orally to 7-months-old APP/PS1 mice for 8 weeks. Also, to confirm possible therapeutic efficacy of N-AS in 5×FAD, the N-AS (30 mg kg^−1, Sigma-Aldrich, 01912) was injected daily s.c. for 4 weeks to 3-months-old 5×FAD mice until the age of 4 months. Block randomization method was used to allocate the animals to experimental groups. To eliminate the bias, we were blinded in experimental progress such as data collection and data analysis. Mice were housed at temperature of 22 °C and a 12 h day/12 h night cycle with free access to tap water and food pellets. All protocols were approved by the Kyungpook National University Institutional Animal Care and Use Committee.
# For total RNA extraction from the microglia derived from WT, APP/PS1, APP/PS1 mice treated with N-AS, and APP/PS1 mice treated with aspirin, the cells were isolated from the cortex of WT, APP/PS1, APP/PS1 mice treated with N-AS, or aspirin using the methods described above. Total RNA was isolated using the kit components according to the manufacturer’s instructions (RNeasy mini kit, 74134, QIAGEN). cDNA was synthesized from 5 μg of total RNA using a commercially available kit (Takara). Quantitative real-time PCR was performed using a Corbett research RG-6000 real-time PCR instrument. Primers are described in Supplementary Table 5.
# [3] = biological target: T2, COX2 T564A (Homo sapiens, UniProt P35354, T564A); assay: filter binding assay of [14C] N-AS to COX2; settings: 0.2 uM, replicates
# T2 construct: His (N); made in house
# T2 sequence (P35354 18-604 T564A): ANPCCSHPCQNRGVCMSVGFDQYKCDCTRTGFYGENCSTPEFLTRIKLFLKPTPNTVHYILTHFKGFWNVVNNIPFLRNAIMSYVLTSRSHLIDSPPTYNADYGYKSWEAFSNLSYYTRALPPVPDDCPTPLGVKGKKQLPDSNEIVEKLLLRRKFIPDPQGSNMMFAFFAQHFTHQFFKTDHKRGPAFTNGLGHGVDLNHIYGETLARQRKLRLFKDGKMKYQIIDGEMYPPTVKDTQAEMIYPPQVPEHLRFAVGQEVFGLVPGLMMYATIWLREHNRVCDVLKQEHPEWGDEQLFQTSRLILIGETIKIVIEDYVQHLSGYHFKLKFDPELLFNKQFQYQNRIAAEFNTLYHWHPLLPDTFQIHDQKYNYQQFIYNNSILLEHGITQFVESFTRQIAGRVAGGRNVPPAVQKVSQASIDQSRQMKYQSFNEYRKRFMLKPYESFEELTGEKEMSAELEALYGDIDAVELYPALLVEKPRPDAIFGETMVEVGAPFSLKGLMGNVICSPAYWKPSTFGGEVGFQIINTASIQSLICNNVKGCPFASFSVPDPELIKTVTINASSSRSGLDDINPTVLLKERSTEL
# [4] = ATP 1000 µM, 100 µM sphingosine
# [5] = SphK1 (WT), Supplementary Fig 1g
# [6] = APP/PS1 + N-AS, individual animals
structure (smiles),measurement,setting,value
"CC(=O)SCCNC(=O)CCNC(=O)[C@H](O)C(C)(C)COP(=O)(O)OP(=O)(O)OC[C@H]1O[C@@H](n2cnc3c(N)ncnc32)[C@H](O)[C@@H]1OP(=O)(O)O [Acetyl-CoA, acetyl-CoA]",Kcat of acetyl-CoA binding to SphK1,"[1]; ATP 0 µM, 100 µM sphingosine",0.000282 s⁻¹
same,Kcat of acetyl-CoA binding to SphK1,"[1]; ATP 10 µM, 100 µM sphingosine",0.000268 s⁻¹
same,Kcat of acetyl-CoA binding to SphK1,"[1]; ATP 100 µM, 100 µM sphingosine",0.000183 s⁻¹
same,Kcat of acetyl-CoA binding to SphK1,[1]; [4],0.000138 s⁻¹
same,Kcat of acetyl-CoA binding to SphK1,[1]; [5],0.000288 s⁻¹
same,Km,"[1]; ATP 0 µM, 100 µM sphingosine",11 µM
same,Km,"[1]; ATP 10 µM, 100 µM sphingosine",24.5 µM
same,Km,"[1]; ATP 10 µM, 100 µM sphingosine, listed as acetyl-CoA",24.5 µM
same,Km,"[1]; ATP 100 µM, 100 µM sphingosine",35.2 µM
same,Km,"[1]; ATP 100 µM, 100 µM sphingosine, listed as acetyl-CoA",35.2 µM
same,Km,[1]; [4],39 µM
same,Km,"[1]; ATP 1000 µM, 100 µM sphingosine, listed as acetyl-CoA",39 µM
same,Km,[1]; [5],10.5 µM
"CCCCCCCCCCCCC/C=C/[C@@H](O)[C@H](CO)NC(C)=O [N-AS, N-((2S,3R,E)-1,3-Dihydroxyoctadec-4-en-2-yl)acetamide]",Arg1 mRNA level (Figure 6j),[2]; [6],1.307 and 2.185 and 1.935 and 1.275 and 1.335 and 1.465
same,IL1b mRNA level (Figure 6j),[2]; [6],1.25 and 0.7 and 1.3 and 0.95 and 0.88 and 1.1
same,IL4 mRNA level (Figure 6j),[2]; [6],0.765 and 1.235 and 0.984 and 0.825
same,IL6 mRNA level (Figure 6j),[2]; [6],0.7652 and 0.81 and 0.821 and 0.83 and 0.957
same,TGFb mRNA level (Figure 6j),[2]; [6],1.79 and 2.4 and 2.595 and 2.81
same,TNF-a mRNA level (Figure 6j),[2]; [6],0.865 and 1.34 and 1.37 and 1.005 and 1.085
same,iNOS mRNA level (Figure 6j),[2]; [6],0.92 and 1.42 and 1.85 and 1.2 and 0.78 and 0.55
same,inflammatory response (mRNA of inflammatory markers),[2]; N-AS vs vehicle APP/PS1,improved
same,binding velocity (Vbinding),[3],0.196 nM/min and 0.240 nM/min and 0.096 nM/min
